The values that follow come from PMC9039177 (Frontiers in Chemistry, 2022).

Data set [1] has as its system human DUBs (panel of 41 enzymes). Format: biochemical.
Data set [2] deals with T1, SARS-CoV PLpro (Severe acute respiratory syndrome coronavirus, UniProt P0C6X7). The experiment in a line: biochemical.
Data set [3] in a line: in vitro. The note with it: human, microsomes, pH 7.4.
For data set [4], the target named is T2, SARS-CoV-2 PLpro (Severe acute respiratory syndrome coronavirus 2, UniProt P0DTD1). As to the kind of experiment: biochemical.
A short description of data set [5]: in vitro. The following applies: human, Caco-2, pH 7.4.
The next data set in a line: physchem. The note with it: kinetic from dmso stock.
Data set [6] deals with T3, MERS-CoV PLpro (Middle East respiratory syndrome-related coronavirus, UniProt K9N7C7). The experiment in a line: biochemical.
T3 sequence (K9N7C7 1482-1803 limits assumed): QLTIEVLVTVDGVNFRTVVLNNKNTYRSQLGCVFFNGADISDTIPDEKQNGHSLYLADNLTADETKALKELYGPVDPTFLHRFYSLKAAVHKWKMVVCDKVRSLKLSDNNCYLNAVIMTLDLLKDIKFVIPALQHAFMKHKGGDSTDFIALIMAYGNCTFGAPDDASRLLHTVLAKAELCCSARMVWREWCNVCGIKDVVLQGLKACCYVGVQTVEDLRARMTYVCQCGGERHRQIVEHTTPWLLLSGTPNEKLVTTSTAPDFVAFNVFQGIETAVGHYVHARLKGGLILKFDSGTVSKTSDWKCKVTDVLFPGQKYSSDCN
Data set [7] concerns the target T3, MERS-CoV PLpro. As to the kind of experiment: biochemical. The data set is classed as binding.
For data set [8], the system named is SARS-CoV-2. Format: cell-based.
The target of data set [9] is T1, SARS-CoV PLpro. The experiment in a line: biochemical. Format: binding.
Data set [10] can be described thus: in vitro. The following applies: mouse, microsomes, pH 7.4.
The target of data set [11] is T2, SARS-CoV-2 PLpro. As to the kind of experiment: biochemical. The data set is classed as binding.
A further data set has as its target human USP21 (Homo sapiens, UniProt Q9UK80). As to the kind of experiment: biochemical.
Data set [12] deals with SARS-CoV-2. The note with it: cited from earlier work.
In data set [13] the target is T2, SARS-CoV-2 PLpro. The note with it: read-out: IC50 against PLpro; cited from earlier work.
For another data set, the system named is Calu-3 cells. The following applies: cited from earlier work.

In brackets after ≈: the same amount, converted by molar mass. Several values for one entry are separate records, joined by “and”; a condition that tells them apart may be missing. Equal entries are not always repeated. Entries after “also recorded” stand apart in the source; their conditions may differ. Where two headings read alike, the source gives them in different places.

Chain of human USP21 (Q9UK80 whole entry): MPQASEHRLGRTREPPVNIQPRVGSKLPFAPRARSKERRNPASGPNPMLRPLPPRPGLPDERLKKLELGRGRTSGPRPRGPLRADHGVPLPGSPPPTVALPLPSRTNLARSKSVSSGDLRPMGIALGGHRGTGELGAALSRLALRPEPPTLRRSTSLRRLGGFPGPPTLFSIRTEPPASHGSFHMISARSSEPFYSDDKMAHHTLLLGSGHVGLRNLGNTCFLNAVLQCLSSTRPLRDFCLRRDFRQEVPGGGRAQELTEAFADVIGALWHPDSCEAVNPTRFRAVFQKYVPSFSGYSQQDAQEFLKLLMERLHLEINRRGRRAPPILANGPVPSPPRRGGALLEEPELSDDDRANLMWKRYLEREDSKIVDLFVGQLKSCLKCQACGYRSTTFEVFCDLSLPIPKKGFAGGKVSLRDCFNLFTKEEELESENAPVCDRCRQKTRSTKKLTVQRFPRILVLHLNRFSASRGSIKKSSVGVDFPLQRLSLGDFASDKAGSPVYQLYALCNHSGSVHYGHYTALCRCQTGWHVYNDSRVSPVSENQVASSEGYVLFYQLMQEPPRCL

Take `COc1cc(CNC(=O)C2CCN([C@H](C)c3cccc4ccccc34)CC2)ccn1` [Compound 5c]: the “Mouse plasma protein binding” value is listed as 86.3 % bound. For the same compound, in the data set with Caco-2 cell monolayers, the “efflux in Caco-2” value was “no evidence of efflux”. Further, the “inhibition of human DUBs” value in data set [1] is “did not inhibit any of the human DUBs tested; also recorded: does not notably inhibit any of the tested human DUBs”. Further, the concentration for half-maximal inhibition (IC50) at SARS-CoV PLpro [2] is 500 nM. In the data set “in vitro [3]”, the half-life was 16 min and the microsomal CLint worked out at 110 µL/min/mg. On SARS-CoV-2 PLpro [4] (IC50, SARS-CoV-2), this compound showed an IC50 of 720 nM. For the same compound, the IC50 at SARS-CoV-2 PLpro [4] (calculated IC50) is 860 nM. In “in vitro [5]”, this compound gave an apparent permeability from apical to basolateral (Papp A→B) of 53 ×10⁻⁶ cm/s and a basolateral-to-apical permeability (Papp B→A) of 55 ×10⁻⁶ cm/s. The kinetic solubility in the data set “physchem” (pH 2, aqueous buffer) is over 100 µg/mL. Moreover, the kinetic solubility in “physchem” (pH 6.5, aqueous buffer) lay within 50 to 100 µg/mL (≈ 124 to 248 µM). In addition, the IC50 against MERS-CoV PLpro [6] is over 98000 nM. The compound also showed a Kd on MERS-CoV PLpro [7] of over 20000 nM. Besides, the dissociation constant Kd on MERS-CoV PLpro [7] (read-out: KD Exp1, MERS-CoV) is over 20000 nM. For the same compound, at MERS-CoV PLpro [7] (read-out: KD Exp3, MERS-CoV), the dissociation constant (Kd) was over 20000 nM. The “reduction of viral titer” value with SARS-CoV-2 [8] worked out at 1 log. Further, the Kd at SARS-CoV PLpro [9] (KD Exp1, SARS-CoV) was 833 nM. This compound registered a Kd on SARS-CoV PLpro [9] (KD Exp2, SARS-CoV) of 880 nM. At SARS-CoV PLpro [9] (KD Exp3, SARS-CoV), the equilibrium dissociation constant (Kd) is 853 nM. Moreover, the dissociation constant Kd at SARS-CoV PLpro [9] (KD, SARS-CoV) was 855 nM and 860 nM. In the data set “in vitro [10]”, the half-life was found to be 20 min and the microsomal CLint was found to be 86 µL/min/mg. Binding at SARS-CoV-2 PLpro [11] (KD Exp1, SARS-CoV-2 PLpro WT) was put at a Kd of 4110 nM. Moreover, binding on SARS-CoV-2 PLpro [11] (KD Exp2, SARS-CoV-2 PLpro WT) was put at a Kd of 2450 nM. In addition, the dissociation constant (Kd) on SARS-CoV-2 PLpro [11] (KD Exp3, SARS-CoV-2 PLpro WT) amounted to 2600 nM. In addition, the Kd on SARS-CoV-2 PLpro [11] (KD, SARS-CoV-2) was found to be 3050 ± 920 nM.
Consider `COc1cc(CNC(=O)C2CCN(C(C)c3cccc4ccccc34)CC2)ccn1` (stereo not drawn) [rac5c], for which the IC50 on human USP21 is over 98000 nM; at SARS-CoV-2 PLpro [13] it was 600 to 800 nM; against SARS-CoV-2 PLpro [4] (PLpro IC50), 790 nM. For the same compound, the “decrease of SARS-CoV-2 viral titers (TCID50)” value with SARS-CoV-2 [12] was 2-3 orders of magnitude. Moreover, the “cytotoxicity, no evidence up to” value with Calu-3 cells was over 33 µM.

For orientation: IC50 means the concentration needed to halve the response being measured. The half-life is the time needed for the level to fall by half in the phase considered. The term microsomal CLint denotes a measure of how fast metabolising enzymes remove a compound, apart from limits set by blood flow. Broadly, the Papp A→B is the apparent permeability from the apical to the basolateral side of a cell layer. Low values mean poor permeation, high ones ready permeation. As usually defined, the Papp B→A is the apparent permeability from the basolateral to the apical side of a cell layer. The solubility (kinetic) is the concentration staying in solution when a stock, usually in DMSO, is diluted into the medium. The term Kd denotes the equilibrium constant for the complex coming apart.
